Measurements reported in patent publication US20200055817A1 (AbbVie Deutschland GmbH & Co. KG, priority 2016, published 2020).

Legend:
Type in all cases: cell-based
[1] = biological target: T1, human EDG8 (S1PR5) receptor (Homo sapiens, UniProt Q9H228); experiment: Aequorin assay, agonist potency, CHO-A21-EDG8#12 cells; details: agonist mode, aequorin luminescence; read-out: S1P5 EC50 range #
T1 construct: carries the transgenes human EDG8 (S1PR5) receptor (Acession number NP_110387.1); expressed in transfected cells; host or cells: CHO-A21-EDG8#12 (CHO clone co-expressing mitochondrial aequorin and chimaeric Gaqi5)
Experimental: (§1) Agonistic activity was measured as described below.
(§2) Cell clone CHO-A21-Edg1#17 carries the transgenes human EDG1 (S1PR1) receptor (Accession number NP_001391.2), mitochondrially targeted Aequorin (active part corresponds to accession number 1SL8_A) and chimaeric Gaqi5=Gaq modified with the 5 C-terminal amino-acids replaced with those of the Gai protein (DCGLF). CHO-A2-S1P3 Mix is a cell pool ectopically expressing human EDG3 (S1PR3) receptor (Accession number NP_005217.2) mitochondrially targeted Aequorin (active part has a sequence similar to accession number AY601106.1) and GNA16 (Accession number NP_002059.3). Cell clone CHO-A21-EDG8#12 carries the transgenes human EDG8 (S1PR5) receptor (Acession number NP_110387.1), mitochondrially expressed Aequorin (active part corresponds to accession number 1SL8_A) and chimaeric Gaqi5 (Gaq modified to present the 5 last amino-acids of the Gai protein “DCGLF”; see above). Cells are grown to mid-log phase in culture medium (HAM's F12, 10% FBS, 100 IU/mL penicillin, 100 μg/mL streptomycin, 250 μg/mL Zeocin, 400 μg/mL G418). 18 hours prior to frozen cells preparation, the medium is changed to remove the antibiotics.
(§3) 18 hours prior to the test, vials of frozen cells are quickly thawed in a 37° C. water bath, cells are recovered by centrifugation and resuspended in assay buffer (DMEM/HAM's F12 with HEPES, without phenol red+0.1% fatty acid-free BSA). Cells are gently agitated in suspension overnight at RT in presence of 5 μM of Coelenterazine h (Molecular Probes). On the day of the test, cells are diluted to their final working concentrations in assay buffer and agitated in suspension for 1 h at RT. Cells are then placed in the luminescence reader (Hamamatsu Functional Drug Screening System 6000, FDSS6000). During cells incubation, compounds are prepared in 100% DMSO, and subsequently diluted in assay buffer. Compounds are then dispensed in the assay plate (black, clear-bottom, 384-well plate). After binding of agonists to the human S1P receptor the intracellular calcium concentration increases and binding of calcium to the Aequorin/Coelenterazine complex leads to an oxidation reaction of coelenterazine, which results in the production of Aequorin, coelenteramide, CO2 and light (Dmax 469 nm). The luminescent response is dependent on the agonist concentration. For agonist testing, 30 μL of cell suspension are injected on 30 μL of test compound or reference agonist in the assay plate. The resulting emission of light is recorded for 90 seconds using the FDSS6000. Dose response curves with the reference compounds are performed before testing the compounds. S1P is the reference agonist and JTE-013 the reference antagonist for S1P2.
(§4) Luminescence data are integrated over the reading interval for agonist and antagonist modes. To standardize the emission of recorded light (determination of the “100% signal”) across plates and across different experiments, some of the wells contain 100 μM digitonin or a saturating concentration of ATP (20 μM). Plates also contain the reference agonist at a concentration equivalent to the EC80 obtained during the test validation and the EC100. Dose-response data from test compounds were analyzed with XLfit (IDBS) software using nonlinear regression applied to a sigmoidal dose-response model and the following equation: […]

[2] = biological target: T2, human EDG1 (S1PR1) receptor (Homo sapiens, UniProt P21453); experiment: Aequorin assay, agonist potency, CHO-A21-Edg1#17 cells; details: agonist mode, aequorin luminescence; read-out: S1P1 EC50
T2 construct: expressed in transfected cells; host or cells: CHO-A21-Edg1#17 (CHO clone co-expressing mitochondrial aequorin and chimaeric Gaqi5)
Experimental: as §1, §2, §3, §4

S1P4 = biological target: T3, S1P4 (Homo sapiens, UniProt O95977); experiment: Aequorin assay, agonist potency, S1P4; details: agonist mode, aequorin luminescence
T3 sequence (O95977 1-384): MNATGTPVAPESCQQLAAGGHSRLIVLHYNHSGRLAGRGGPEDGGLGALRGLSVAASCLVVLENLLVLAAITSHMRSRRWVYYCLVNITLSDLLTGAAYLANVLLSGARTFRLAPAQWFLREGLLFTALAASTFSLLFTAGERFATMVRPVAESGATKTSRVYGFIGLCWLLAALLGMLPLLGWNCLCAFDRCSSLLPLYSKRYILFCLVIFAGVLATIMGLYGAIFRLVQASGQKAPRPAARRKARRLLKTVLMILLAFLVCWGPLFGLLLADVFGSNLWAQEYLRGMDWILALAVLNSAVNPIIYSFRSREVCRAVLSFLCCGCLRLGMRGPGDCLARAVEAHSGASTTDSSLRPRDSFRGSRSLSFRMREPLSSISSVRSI
Experimental: as §1, §3, §4

T2 sequence (P21453 whole entry): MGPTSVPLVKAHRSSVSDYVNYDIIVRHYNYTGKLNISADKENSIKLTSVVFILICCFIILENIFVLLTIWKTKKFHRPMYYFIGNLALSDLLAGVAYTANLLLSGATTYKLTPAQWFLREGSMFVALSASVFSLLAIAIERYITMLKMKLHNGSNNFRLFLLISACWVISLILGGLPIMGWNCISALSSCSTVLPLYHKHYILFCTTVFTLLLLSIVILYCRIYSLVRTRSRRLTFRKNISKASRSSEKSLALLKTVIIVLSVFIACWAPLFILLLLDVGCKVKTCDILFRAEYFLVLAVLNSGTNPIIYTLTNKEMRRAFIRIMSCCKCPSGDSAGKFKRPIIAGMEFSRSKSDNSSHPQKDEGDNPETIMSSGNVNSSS
T1 sequence (Q9H228 whole entry): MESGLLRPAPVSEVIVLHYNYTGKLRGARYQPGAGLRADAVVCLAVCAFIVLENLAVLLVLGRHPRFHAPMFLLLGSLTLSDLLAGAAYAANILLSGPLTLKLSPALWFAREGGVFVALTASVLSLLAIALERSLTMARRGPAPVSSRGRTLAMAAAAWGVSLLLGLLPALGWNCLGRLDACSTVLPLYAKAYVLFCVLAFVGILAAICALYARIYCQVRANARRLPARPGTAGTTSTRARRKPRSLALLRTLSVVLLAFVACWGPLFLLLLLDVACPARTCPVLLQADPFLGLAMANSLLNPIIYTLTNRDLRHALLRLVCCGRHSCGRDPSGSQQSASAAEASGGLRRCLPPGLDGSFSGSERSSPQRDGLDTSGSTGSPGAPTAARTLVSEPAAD

Row | SMILES | EC50 [1] [nM] | EC50 [2] [nM] | EC50 (S1P4) [nM]
1 | CC(C)Oc1ccc(CCc2ccc3c(c2)CC2(C3)CN(CC3(C(=O)O)CC3)C2)cn1 [Example 119, 1-((5′-(2-(6-isopropoxypyridin-3-yl)ethyl)-1′,3′-dihydrospiro[azetidine-3,2′-inden]-1-yl)methyl)cyclopropanecarboxylic acid] | 1000 to 10000 | > 1000 | > 1000
2 | O=C(O)CN1CC2(Cc3ccc(OC4CCc5cccc(Cl)c54)cc3C2)C1 (stereo not shown) [Example 67, 2-(5′-((7-chloro-2,3-dihydro-1H-inden-1-yl)oxy)-1′,3′-dihydrospiro[azetidine-3,2′-inden]-1-yl)acetic acid] | ≤ 10 | > 1000 | < 1000
3 | O=C(O)C1(CN2CC3(Cc4ccc(OCc5cc(F)ccc5C(F)(F)F)cc4C3)C2)CC1 [Example 43, 1-((5′-((5-fluoro-2-(trifluoromethyl)benzyl)oxy)-1′,3′-dihydrospiro[azetidine-3,2′-inden]-1-yl)methyl)cyclopropanecarboxylic acid Compound with 2,2,2-trifluoroacetic acid (1:1)] | 1000 to 10000 | > 1000 | < 1000
4 | O=C(O)C1(CN2CC3(Cc4ccc(OCCc5cccc(Cl)c5)cc4C3)C2)CC1 [Example 57, 1-((5′-(3-chlorophenethoxy)-1′,3′-dihydrospiro[azetidine-3,2′-inden]-1-yl)methyl)cyclopropanecarboxylic acid] | 100 to 1000 | < 1000 | < 1000
5 | O=C(O)C1(CN2CC3(Cc4ccc(-c5ccc(OCc6ccccc6)cc5)cc4C3)C2)CC1 [Example 53, 1-((5′-(4-(benzyloxy)phenyl)-1′,3′-dihydrospiro[azetidine-3,2′-inden]-1-yl)methyl)cyclopropanecarboxylic acid] | 100 to 1000 | > 1000 | < 1000
6 | O=C(O)CN1CC2(Cc3ccc(OCCc4ccccc4)cc3C2)C1 [Example 60, 2-(5′-phenethoxy-1′,3′-dihydrospiro[azetidine-3,2′-inden]-1-yl)acetic acid] | 1000 to 10000 | > 1000 | > 1000
7 | O=C(O)CN1CC2(Cc3ccc(OCc4c(F)cccc4F)cc3C2)C1 [Example 13, 2,2,2-trifluoroacetic acid compound with 2-(5′-((2,6-difluorobenzyl)oxy)-1′,3′-dihydrospiro[azetidine-3,2′-inden]-1-yl)acetic acid (1:1)] | 10 to 100 | > 1000 | < 1000
8 | O=C(O)CN1CC2(Cc3ccc(C#Cc4ccccc4)cc3O2)C1 [Example 151, 2-(6′-(phenylethynyl)-3′H-spiro[azetidine-3,2′-benzofuran]-1-yl)acetic acid] | ≤ 10 | > 1000 | < 1000
9 | CCOc1cc(F)c(COc2ccc3c(c2)CC2(C3)CN(CC3(C(=O)O)CC3)C2)c(F)c1 [Example 122, 1-((5′-((4-ethoxy-2,6-difluorobenzyl)oxy)-1′,3′-dihydrospiro[azetidine-3,2′-inden]-1-yl)methyl)cyclopropanecarboxylic acid] | 1000 to 10000 | > 1000 | < 1000
10 | O=C(O)C1(CN2CC3(Cc4ccc(OCc5cccc6c5CCC6)cc4C3)C2)CC1 [Example 125, 1-((5′-((2,3-dihydro-1H-inden-4-yl)methoxy)-1′,3′-dihydrospiro[azetidine-3,2′-inden]-1-yl)methyl)cyclopropanecarboxylic acid] | 10 to 100 | > 1000 | < 1000
11 | O=C(O)CN1CC2(Cc3ccc(OCc4c(Cl)cccc4C(F)(F)F)cc3C2)C1 [Example 20, 2,2,2-trifluoroacetic acid compound with 2-(5′-((2-chloro-6-(trifluoromethyl)benzyl)oxy)-1′,3′-dihydrospiro[azetidine-3,2′-inden]-1-yl)acetic acid (1:1)] | ≤ 10 | > 1000 | < 1000
12 | O=C(O)CN1CC2(Cc3ccc(OCCOc4ccccc4)cc3C2)C1 [Example 70, 2-(5′-(2-phenoxyethoxy)-1′,3′-dihydrospiro[azetidine-3,2′-inden]-1-yl)acetic acid] | 100 to 1000 | > 1000 | < 1000

Continued, values first:

Row | EC50 [1] [nM] | EC50 [2] [nM] | EC50 (S1P4) [nM] | SMILES
13 | 1000 to 10000 | > 1000 | < 1000 | CCOc1ccc(COc2ccc3c(c2)CC2(C3)CN(CC3(C(=O)O)CC3)C2)c(Cl)c1 [Example 32, 1-((5′-((2-chloro-4-ethoxybenzyl)oxy)-1′,3′-dihydrospiro[azetidine-3,2′-inden]-1-yl)methyl)cyclopropanecarboxylic acid]
14 | 100 to 1000 | > 1000 | > 1000 | COc1cccc(Cl)c1COc1ccc2c(c1)CC1(C2)CN(CC(=O)O)C1 [Example 9, 2,2,2-trifluoroacetic acid compound with 2-(5′-((2-chloro-6-methoxybenzyl)oxy)-1′,3′-dihydrospiro[azetidine-3,2′-inden]-1-yl)acetic acid (1:1)]
15 | 100 to 1000 | < 1000 | > 1000 | O=C(O)C1CC(N2CC3(Cc4ccc(C#Cc5ccc(OCC6CC6)nc5)cc4C3)C2)C1 (stereo not shown) [Example 99, 3-(5′-((6-(cyclopropylmethoxy)pyridin-3-yl)ethynyl)-1′,3′-dihydrospiro[azetidine-3,2′-inden]-1-yl)cyclobutanecarboxylic acid]
16 | 1000 to 10000 | > 1000 | > 1000 | COc1ccc(CCOc2ccc3c(c2)CC2(C3)CN(CC3(C(=O)O)CC3)C2)cc1 [Example 135, 1-((5′-(4-methoxyphenethoxy)-1′,3′-dihydrospiro[azetidine-3,2′-inden]-1-yl)methyl)cyclopropanecarboxylic acid]
17 | 10 to 100 | < 1000 | > 1000 | CCOc1ccc(C#Cc2ccc3c(c2)CC2(C3)CN(C3CC(C(=O)O)C3)C2)cc1 (stereo not shown) [Example 98, 3-(5′-((4-ethoxyphenyl)ethynyl)-1′,3′-dihydrospiro[azetidine-3,2′-inden]-1-yl)cyclobutanecarboxylic acid]
18 | 100 to 1000 | > 1000 | < 1000 | N#Cc1cccc(COc2ccc3c(c2)CC2(C3)CN(CC3(C(=O)O)CC3)C2)c1 [Example 147, 1-((5′-((3-cyanobenzyl)oxy)-1′,3′-dihydrospiro[azetidine-3,2′-inden]-1-yl)methyl)cyclopropanecarboxylic acid]
19 | ≤ 10 | < 1000 | > 1000 | CCOc1ccc(C#Cc2ccc3c(c2)CC2(C3)CN(C3CC(C(=O)O)C3)C2)cc1F (stereo not shown) [Example 100, 3-(5′-((4-ethoxy-3-fluorophenyl)ethynyl)-1′,3′-dihydrospiro[azetidine-3,2′-inden]-1-yl)cyclobutanecarboxylic acid]
20 | 1000 to 10000 | – | – | CCOc1ccc(C#Cc2ccc3c(c2)CC2(C3)CN(CC3(C(=O)O)CC3)C2)cc1 [Example 1, 1-((5′-((4-ethoxyphenyl)ethynyl)-1′,3′-dihydrospiro[azetidine-3,2′-inden]-1-yl)methyl)cyclopropanecarboxylic acid compound with 2,2,2-trifluoroacetic acid (1:1)]
